ChEMBL document CHEMBL3399979, “Discovery of novel Bruton's tyrosine kinase (BTK) inhibitors bearing a pyrrolo[2,3-d]pyrimidine scaffold” (Bioorg Med Chem, 2015)
pIC50: −log10 of the molar value.

How the values were obtained:
[1] = target: T1, Tyrosine-protein kinase BTK (Homo sapiens, UniProt Q06187); test: Inhibition of BTK (unknown origin) after 1 hr by TR-FRET analysis
[2] = target: T1, Tyrosine-protein kinase BTK; test: Inhibition of BTK in human Ramos cells after 20 mins by fluorescence assay; type: cell-based

T1 sequence (Q06187 whole entry): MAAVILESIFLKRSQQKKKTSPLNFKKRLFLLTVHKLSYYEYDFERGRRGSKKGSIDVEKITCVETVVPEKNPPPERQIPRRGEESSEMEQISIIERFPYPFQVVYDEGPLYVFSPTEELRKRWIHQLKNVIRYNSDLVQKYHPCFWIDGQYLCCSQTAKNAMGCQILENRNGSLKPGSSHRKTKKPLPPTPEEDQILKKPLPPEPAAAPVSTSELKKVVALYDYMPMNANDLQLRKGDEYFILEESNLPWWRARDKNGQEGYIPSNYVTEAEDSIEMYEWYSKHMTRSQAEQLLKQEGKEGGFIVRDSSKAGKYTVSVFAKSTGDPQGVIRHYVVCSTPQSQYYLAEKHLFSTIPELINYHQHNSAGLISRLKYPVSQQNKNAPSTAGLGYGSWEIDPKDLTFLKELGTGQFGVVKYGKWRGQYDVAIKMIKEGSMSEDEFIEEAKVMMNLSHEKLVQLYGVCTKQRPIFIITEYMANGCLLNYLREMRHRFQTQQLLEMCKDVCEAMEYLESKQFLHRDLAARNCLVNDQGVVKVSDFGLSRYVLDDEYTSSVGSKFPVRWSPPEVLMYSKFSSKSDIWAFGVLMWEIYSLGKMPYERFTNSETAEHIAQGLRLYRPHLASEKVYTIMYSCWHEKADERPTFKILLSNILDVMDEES

Structure (SMILES): O=C(c1ccc(-c2cc3c(-c4cccc(-n5ccc6cc(C7CC7)cc(F)c6c5=O)c4CO)ncnc3[nH]2)cc1)N1CCOCC1
- pIC50 [1]: 7.74
- pIC50 [2]: 8.00

Structure (SMILES): CS(=O)(=O)N1CC=C(c2cc3c(-c4cccc(-n5ccc6cc(C7CC7)cc(F)c6c5=O)c4CO)ncnc3[nH]2)CC1
- pIC50 [1]: 7.80
- pIC50 [2]: 8.10

Structure (SMILES): CN(C)C(=O)N1CC=C(c2cc3c(-c4cccc(-n5ccc6cc(C7CC7)cc(F)c6c5=O)c4CO)ncnc3n2C)CC1
- pIC50 [1]: < 5.30
- pIC50 [2]: < 5.30

Structure (SMILES): CNC(=O)N1CC=C(c2cc3c(-c4cccc(-n5ccc6cc(C7CC7)cc(F)c6c5=O)c4CO)ncnc3[nH]2)CC1
- pIC50 [1]: 7.60
- pIC50 [2]: 7.29

Structure (SMILES): CN(C)S(=O)(=O)N1CC=C(c2cc3c(-c4cccc(-n5ccc6cc(C7CC7)cc(F)c6c5=O)c4CO)ncnc3[nH]2)CC1
- pIC50 [1]: 7.78
- pIC50 [2]: 7.59

Structure (SMILES): CN(C)C(=O)N1CC=C(c2cc3c(-c4cccc(-n5ccc6cc(C7CC7)cc(F)c6c5=O)c4CO)ncnc3[nH]2)CC1
- pIC50 [1]: 8.15
- pIC50 [2]: 7.67

Structure (SMILES): CN(C)C(=O)c1cccc(-c2cc3c(-c4cccc(-n5ccc6cc(C7CC7)cc(F)c6c5=O)c4CO)ncnc3[nH]2)c1
- pIC50 [1]: 7.16
- pIC50 [2]: 7.06

Structure (SMILES): CN(C)C(=O)N1CCC(c2cc3c(-c4cccc(-n5ccc6cc(C7CC7)cc(F)c6c5=O)c4CO)ncnc3[nH]2)CC1
- pIC50 [1]: 6.24
- pIC50 [2]: 5.78

Structure (SMILES): Cn1ccc(-c2cc3c(-c4cccc(-n5ccc6cc(C7CC7)cc(F)c6c5=O)c4CO)ncnc3[nH]2)n1
- pIC50 [1]: 7.67
- pIC50 [2]: 7.42

Structure (SMILES): O=C(c1ccc(-c2cc3c(-c4cccc(-n5ccc6cc(C7CC7)cc(F)c6c5=O)c4CO)ncnc3[nH]2)cc1)N1CCCCC1
- pIC50 [1]: 7.29
- pIC50 [2]: 7.19

Structure (SMILES): CN(C)Cc1ccc(-c2cc3c(-c4cccc(-n5ccc6cc(C7CC7)cc(F)c6c5=O)c4CO)ncnc3[nH]2)cc1
- pIC50 [1]: 7.50
- pIC50 [2]: 7.48

Structure (SMILES): O=c1c2c(F)cc(C3CC3)cc2ccn1-c1cccc(-c2ncnc3[nH]c(C4=CCSCC4)cc23)c1CO
- pIC50 [1]: 7.17
- pIC50 [2]: 7.34

Structure (SMILES): O=C(N1CC=C(c2cc3c(-c4cccc(-n5ccc6cc(C7CC7)cc(F)c6c5=O)c4CO)ncnc3[nH]2)CC1)N1CCOCC1
- pIC50 [1]: 8.32
- pIC50 [2]: 7.77

Structure (SMILES): O=c1c2c(F)cc(C3CC3)cc2ccn1-c1cccc(-c2ncnc3[nH]c(-c4ccccc4)cc23)c1CO
- pIC50 [1]: 7.04
- pIC50 [2]: 7.10

Structure (SMILES): CC(=O)c1ccc(-c2cc3c(-c4cccc(-n5ccc6cc(C7CC7)cc(F)c6c5=O)c4CO)ncnc3[nH]2)cc1
- pIC50 [1]: 7.38
- pIC50 [2]: 7.31

Structure (SMILES): COc1ccc(-c2cc3c(-c4cccc(-n5ccc6cc(C7CC7)cc(F)c6c5=O)c4CO)ncnc3[nH]2)cn1
- pIC50 [1]: 6.70
- pIC50 [2]: 7.13

Structure (SMILES): CC(=O)N1CC=C(c2cc3c(-c4cccc(-n5ccc6cc(C7CC7)cc(F)c6c5=O)c4CO)ncnc3[nH]2)CC1
- pIC50 [1]: 7.82
- pIC50 [2]: 7.67

Structure (SMILES): Nc1cccc(-c2cc3c(-c4cccc(-n5ccc6cc(C7CC7)cc(F)c6c5=O)c4CO)ncnc3[nH]2)c1
- pIC50 [1]: 6.87
- pIC50 [2]: 7.19

Structure (SMILES): COc1ccc(-c2cc3c(-c4cccc(-n5ccc6cc(C7CC7)cc(F)c6c5=O)c4CO)ncnc3[nH]2)cc1
- pIC50 [1]: 7.23
- pIC50 [2]: 7.41

Structure (SMILES): O=c1c2c(F)cc(C3CC3)cc2ccn1-c1cccc(-c2ncnc3[nH]c(-c4cc[nH]n4)cc23)c1CO
- pIC50 [1]: 7.41
- pIC50 [2]: 7.33

Structure (SMILES): O=c1c2c(F)cc(C3CC3)cc2ccn1-c1cccc(-c2ncnc3[nH]c(C4=CCCCC4)cc23)c1CO
- pIC50 [1]: 7.11
- pIC50 [2]: 6.46

Structure (SMILES): O=c1c2c(F)cc(C3CC3)cc2ccn1-c1cccc(-c2ncnc3[nH]c(-c4ccc(O)cc4)cc23)c1CO
- pIC50 [1]: 7.13
- pIC50 [2]: 6.68

Structure (SMILES): CN(C)C(=O)c1ccc(-c2cc3c(-c4cccc(-n5ccc6cc(C7CC7)cc(F)c6c5=O)c4CO)ncnc3[nH]2)cc1
- pIC50 [1]: 7.75
- pIC50 [2]: 7.82

Structure (SMILES): O=c1c2c(F)cc(C3CC3)cc2ccn1-c1cccc(-c2ncnc3[nH]ccc23)c1CO
- pIC50 [1]: 5.80
- pIC50 [2]: < 5.30

Structure (SMILES): O=c1c2c(F)cc(C3CC3)cc2ccn1-c1cccc(-c2ncnc3[nH]c(-c4ccc(CN5CCOCC5)cc4)cc23)c1CO
- pIC50 [1]: 7.20
- pIC50 [2]: 7.92

Structure (SMILES): O=c1c2c(F)cc(C3CC3)cc2ccn1-c1cccc(-c2ncnc3[nH]c(C4=CCNCC4)cc23)c1CO
- pIC50 [1]: 7.49
- pIC50 [2]: 7.02

Structure (SMILES): CN(C)C(=O)c1cc2c(-c3cccc(-n4ccc5cc(C6CC6)cc(F)c5c4=O)c3CO)ncnc2[nH]1
- pIC50 [1]: 5.87
- pIC50 [2]: 5.81

Structure (SMILES): CN1CC=C(c2cc3c(-c4cccc(-n5ccc6cc(C7CC7)cc(F)c6c5=O)c4CO)ncnc3[nH]2)CC1
- pIC50 [1]: 7.24
- pIC50 [2]: 6.90

Structure (SMILES): CC(=O)c1cc(-c2cc3c(-c4cccc(-n5ccc6cc(C7CC7)cc(F)c6c5=O)c4CO)ncnc3[nH]2)cs1
- pIC50 [1]: 6.93
- pIC50 [2]: 7.24

Structure (SMILES): O=c1c2c(F)cc(C3CC3)cc2ccn1-c1cccc(-c2ncnc3[nH]c(C4=CCN(c5ncccn5)CC4)cc23)c1CO
- pIC50 [1]: 7.34
- pIC50 [2]: 7.16

Structure (SMILES): O=c1c2c(F)cc(C3CC3)cc2ccn1-c1cccc(-c2ncnc3[nH]c(C4=CCN(C5COC5)CC4)cc23)c1CO
- pIC50 [1]: 7.61
- pIC50 [2]: 7.96
